Measurements from patent US20200197516A1, “Antagonists of Products of the HS.459642 Unigene Cluster for the Inhibition of Proliferation, Development or Differentiation of Stem Cells Including Cancer Stem Cells” (Cavion, Inc., priority 2011, published 2020).

Tested on: glioma stem cells (GSC)
Experiment: alamarBlue assay: sensitizing glioma stem cells to Temozolomide
Type: cell-based
Conditions: mibefradil 30 nM for 24 hrs, washed, then Temozolomide 5 μM for 24 hrs, FIG. 4
Procedure: FIG. 4. Effect of mibefradil (Mi) on sensitizing glioma stem cells (GSC) to Temozolomide (TMZ). The GSCs were seeded in 24 well plates as 50,000 cells/well overnight. They were grown in serum-free neurobasal media (Invitrogen), supplemented with human recombinant EGF and bFGF (R&D Systems) at 37° C. in 5% CO2, […]. Cells were treated with the T type calcium channel blocker mibefradil (30 nM) for 24 hrs, washed and then treated with Temozolomide (5 μM) for 24 hrs The reagent alamarBlue® (Invitrogen) was added to each well to arrive at a final concentration of 10% alamarBlue® in each well and fluorescence intensity was determined according to the manufacturers instructions. Plates were incubated for 1-2 hrs and 100 μl of supernatant was transferred to a 96 well plate for alamarBlue® reading.
FIG. 5. […]
In order to determine the effect of inhibition of a product of the Hs.459642 Unigene Cluster on cancer stem cells, the effect of two inhibitors of T-type calcium channels was studied to determine if CACNA1H inhibition sensitizes cancer cells to further anti-cancer treatment. […] Subsequent to the combination treatment, with the anti-cancer agent administered sequentially to the CACNA1H inhibitor, fluorescence intensity indicative of cell proliferation was analyzed, with greater intensity indicating increased cellular proliferation. […]

In the case of `COCC(=O)O[C@]1(CCN(C)CCCc2nc3ccccc3[nH]2)CCc2cc(F)ccc2[C@@H]1C(C)C` [Mi, mibefradil], the “fluorescence intensity (alamarBlue, indicative of cell proliferation)” value is reported as “dramatically reduced”.
